Measured values published in patent US20130074216A1, “TOMATO CATECHOL-O-METHYLTRANSFERASE SEQUENCES AND METHODS OF USE” (UNIVERSITY OF FLORIDA RESEARCH FOUNDATION, INC., priority 2011, published 2013).

B1: U582403: tomato catechol O-methyltransferase from S. lycopersicum, SEQ ID NO: 3 (protein)
chain: MGSTANIQLATQSEDEERNCTYAMQLLSSSVLPFVLHSTIQLDVFDILAKDKAATKLSALEIVSHMPNCKNPDAATMLDRMLYVLASYSLLDCSVVEEGNGVTERRYGLSRVGKFFVRDEDGASMGPLLALLQDKVFINSWFELKDAVLEGGVPFDRVHGVHAFEYPKLDPKFNDVFNQAMINHTTVVMKRILENYKGFENLKTLVDVGGGLGVNLKMITSKYPTIKGTNFDLPHVVQHAPSYPGVDHVGGDMFESVPQGDAIFMKWILHDWSDGHCLKLLKNCHKALPDNGKVIVVEANLPVKPDTDTTVVGVSQCDLIMMAQNPGGKERSEQEFRALASEAGFKGVNLICCVCNFWVMEFYK
modifications: S. lycopersicum

Experiments:
[1] = test system: SIOMT1; experiment: Substrate specificity assay of purified recombinant SIOMT1 with [14C]-AdoMet; assay type: biochemical, Solanum lycopersicum; details: 15 μM substrate, 30 min, 25°, products extracted with hexanes, scintillation counting
Protocol: FIG. 2 illustrates the chemical structure and relative activity of SIOMT1 on catechol and substrates with similar structure to catechol. Relative activity was determined by incubating purified SIOMT with excess amounts of [C^14]-AdoMet and […] of substrate. Products were extracted with hexanes and measured with a scintillation counter. Relative activity is expressed as a percentage of activity on catechol. 1=catechol; 2=guaiacol; 3=salicylic acid; 4=benzoic acid; 5=orcinol; 6=caffeic acid.
For substrate specificity assays, 5 μL purified enzyme was assayed at 25° in a 100 μL reaction containing 50 mM Tris-HCl, pH 7.5, 100 mM KCl, 2.8 mM BME, 15 μM substrate, 10 mM SAM, 0.4 mM [methyl-^14C] AdoMet (specific activity 50.4 mCi mmol^−1; Amersham). Substrates were diluted in 50% EtOH. Assays were done in triplicate, including boiled enzyme controls. After 30 min at 25° the reactions were stopped by adding equal volumes of hexanes. The methylated substrate was extracted on a vortex mixer for 15 sec and centrifuging at 13 200 g for 5 min. 50 μL of the organic layer was counted for 10 min in 3 ml Ready Gel Scintillation Fluid (Beckman Coulter, http://www.beckmancoulter.com). Counts for the boiled enzyme controls were subtracted from the sample counts, and activity for catechol was normalized to 100%. For the Km of catechol, procedures were the same as above, except for catechol concentrations. Concentrations used were: 0, 1, 5, 15, 25, and 50 μM.
To further test the specificity of SGN-U582403 (SIOMT1) for catechol, the activity of SIOMT1 on substrates with similar structure to catechol was measured. Purified protein was incubated with [^14C]-AdoMet and the following potential substrates: catechol, guaiacol, salicylic acid, benzoic acid, orcinol, or caffeic acid. Products were extracted with hexanes and measured with a scintillation counter.

[2] = test system: tomato fruit pericarp discs; experiment: Catechol feeding of tomato fruit pericarp discs, guaiacol by GC/MS; assay type: cell-based, Solanum lycopersicum cv. Flora-Dade; details: 10 μl of 1 M catechol per disc
Protocol: FIGS. 6A and 6B illustrate results of catechol feeding of tomato discs. Tomato fruit discs were made from the pericarp of Flora-Dade and SIOMT1OE ripe fruit and treated with water or catechol. Volatiles of the discs were collected after 5 h and analyzed using GC-MS. FIG. 6A illustrates the spectrum showing the guaiacol peak at 20.65 minutes. […] The table in FIG. 6B summarizes the differences in guaiacol production between Flora-Dade and SIOMT1OE.
Tomato discs were cut from pericarp tissue of ripe WT and SIOMT1 over-expressing fruit using a size 10 borer. A hundred discs were used for each sample treatment. Discs were placed in petri dishes and an X was cut in the top of each. 10 μl of either water or 1 M catechol dissolved in water was pipetted into each disc. Cover were place on petri dish and disc were left to incubate for 5 hr. Disc were then place in glass tube and volatiles were extracted as previously described. Guaiacol was quantified on GC/MS using a guaiacol standard curve.
Rather, low concentrations of catechol might limit the production of guaiacol in SIOMT1 plants. Thus, to further test this, catechol was fed to fruit pericarp discs of Flora-Dade (WT) and SIOMT1 over-expressing lines. Volatiles were collected after incubation for […]. Both WT and SIOMT1 discs produced increased guaiacol when fed catechol. […]

[3] = Initial screen: catechol added to E. coli cultures expressing candidate OMT, guaiacol production measured; assay type: cell-based, Solanum lycopersicum cv. M82; details: induced protein in E. coli cultures
Protocol: Potential S. lycopersicum catechol OMT candidates were selected by identification of genes with homology to previously characterized catechol and caffeic acid OMTs (FIG. 1). Five candidate genes were selected, SGN-U582403, SGN-U565623, SGN-U319245, SGN-U575022, and SGN-U321686. Full length cDNAs were synthesized from S. lycopersicum cv. M82 ripe fruit RNA. Candidate genes were cloned into pET160 plasmids for expression in E. coli. Initial screens were performed by adding catechol directly to bacterial cultures expressing induced protein and measuring guaiacol production.

Molecule	activity of SIOMT1 on substrate relative to catechol [1]	guaiacol produced by catechol-fed discs relative to the unfed control ([2]; SIOMT1 over-expressing discs) [times]	guaiacol produced by catechol-fed discs relative to the unfed control ([2]; WT (Flora-Dade) discs) [times]	conversion of catechol to guaiacol by candidate OMT [3]
Cc1cc(O)cc(O)c1 [orcinol]	slight activity	–	–	–
O=C(O)/C=C/c1ccc(O)c(O)c1 [caffeic acid]	slight activity	–	–	–
Oc1ccccc1O [catechol]	preferentially methylated	52	36	–
B1	–	–	–	converted catechol to guaiacol
